Data from patent US20150320773A1, “TREATMENT OF INFLAMMATION” (Vascular Biogenics Ltd., priority 2011, published 2015).

How the values were obtained:
COX-2 = COX-2 (Homo sapiens, UniProt P35354); details: concentrations of up to 10 μM; data not shown
granulocytes = assay: Phagocytosis assay (whole blood), granulocytes; format: cell-based, human; details: VB-201 doses of 5 or 10 µg/ml
Description: (§1) Phagocytosis assays were conducted using pHrodo™ Phagocytosis Particle Labeling Kit (Invitrogen) according to the manufacturer protocol. […] Then, pHrodo dye-labeled E. coli bacteria were mixed with the treated blood samples, in 20:1 ratio of pHrodo™ particles to phagocytosing cells and incubated for additional 15 minutes. Each sample was analyzed both at 4° C. (no phagocytosis, negative control) and 37° C. Following incubation, red blood cells were removed by lysis and the samples were washed 3 times with wash buffer. For gating on specific subpopulations, cells were labeled with anti-CD14-FITC (monocytes and granulocytes marker, BD Biosciences) and anti-CD66b-PerCP/Cy5.5 (granulocytes marker, BioLegend) antibodies. pHrodo fluorescence intensity was analyzed by FACS.
(§2) To this end, a phagocytosis assay was performed on whole blood from healthy donors, and the capacity of leukocyte subsets to phagocytose PE-labeled E. Coli particles was tested in presence or absence of VB-201. As a negative control, we used blood without bacterial particles, while a positive control included blood and labeled-bacterial particles incubated at 37° C. Cells were then stained with CD14 and CD66b antibodies to differentiate between monocytes and granulocytes and were analyzed by FACS.

monocytes = assay: Phagocytosis assay (whole blood), monocytes; format: cell-based, human; design: dose or concentration left out as unconfirmed; details: VB-201 doses of 5 or 10
Description: as §1, §2

TNFα receptor = details: concentrations of up to 17 μM; data not shown
TLR9 = TLR9 (Mus musculus, UniProt Q9EQU3); details: mouse BMDCs; CpG; 1.7, 8.5 or 17 μM
TLR9, sequence (Q9EQU3 26-1032): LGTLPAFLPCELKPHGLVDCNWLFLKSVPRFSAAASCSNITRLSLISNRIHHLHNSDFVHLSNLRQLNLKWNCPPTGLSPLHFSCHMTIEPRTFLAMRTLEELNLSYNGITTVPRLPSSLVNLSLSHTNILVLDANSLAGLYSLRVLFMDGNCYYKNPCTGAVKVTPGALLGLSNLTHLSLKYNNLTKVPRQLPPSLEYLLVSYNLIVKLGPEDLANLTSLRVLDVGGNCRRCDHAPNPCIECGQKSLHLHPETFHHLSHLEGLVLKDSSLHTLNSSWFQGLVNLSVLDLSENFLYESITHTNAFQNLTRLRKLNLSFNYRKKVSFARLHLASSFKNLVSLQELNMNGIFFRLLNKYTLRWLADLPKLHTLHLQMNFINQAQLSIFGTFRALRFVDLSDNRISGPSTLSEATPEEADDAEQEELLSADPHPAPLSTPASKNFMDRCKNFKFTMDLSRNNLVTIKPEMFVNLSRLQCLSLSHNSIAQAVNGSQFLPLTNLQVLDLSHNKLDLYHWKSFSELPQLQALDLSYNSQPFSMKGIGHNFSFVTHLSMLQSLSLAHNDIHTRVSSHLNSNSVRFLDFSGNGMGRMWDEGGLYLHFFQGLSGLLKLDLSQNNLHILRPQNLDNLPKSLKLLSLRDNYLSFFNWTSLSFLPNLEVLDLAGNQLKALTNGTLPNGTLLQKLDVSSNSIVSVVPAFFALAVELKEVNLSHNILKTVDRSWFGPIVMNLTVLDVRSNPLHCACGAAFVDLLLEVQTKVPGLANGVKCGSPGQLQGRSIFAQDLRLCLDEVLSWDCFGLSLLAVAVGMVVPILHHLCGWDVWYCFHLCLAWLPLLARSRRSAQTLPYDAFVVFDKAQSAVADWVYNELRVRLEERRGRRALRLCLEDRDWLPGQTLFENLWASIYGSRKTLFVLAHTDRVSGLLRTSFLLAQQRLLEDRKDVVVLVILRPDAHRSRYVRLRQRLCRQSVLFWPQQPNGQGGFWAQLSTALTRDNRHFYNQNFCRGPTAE

TLR7 = TLR7 (Mus musculus, UniProt P58681); details: mouse BMDCs; R848; 1.7, 8.5 or 17 μM
TLR7, sequence (P58681 27-1050): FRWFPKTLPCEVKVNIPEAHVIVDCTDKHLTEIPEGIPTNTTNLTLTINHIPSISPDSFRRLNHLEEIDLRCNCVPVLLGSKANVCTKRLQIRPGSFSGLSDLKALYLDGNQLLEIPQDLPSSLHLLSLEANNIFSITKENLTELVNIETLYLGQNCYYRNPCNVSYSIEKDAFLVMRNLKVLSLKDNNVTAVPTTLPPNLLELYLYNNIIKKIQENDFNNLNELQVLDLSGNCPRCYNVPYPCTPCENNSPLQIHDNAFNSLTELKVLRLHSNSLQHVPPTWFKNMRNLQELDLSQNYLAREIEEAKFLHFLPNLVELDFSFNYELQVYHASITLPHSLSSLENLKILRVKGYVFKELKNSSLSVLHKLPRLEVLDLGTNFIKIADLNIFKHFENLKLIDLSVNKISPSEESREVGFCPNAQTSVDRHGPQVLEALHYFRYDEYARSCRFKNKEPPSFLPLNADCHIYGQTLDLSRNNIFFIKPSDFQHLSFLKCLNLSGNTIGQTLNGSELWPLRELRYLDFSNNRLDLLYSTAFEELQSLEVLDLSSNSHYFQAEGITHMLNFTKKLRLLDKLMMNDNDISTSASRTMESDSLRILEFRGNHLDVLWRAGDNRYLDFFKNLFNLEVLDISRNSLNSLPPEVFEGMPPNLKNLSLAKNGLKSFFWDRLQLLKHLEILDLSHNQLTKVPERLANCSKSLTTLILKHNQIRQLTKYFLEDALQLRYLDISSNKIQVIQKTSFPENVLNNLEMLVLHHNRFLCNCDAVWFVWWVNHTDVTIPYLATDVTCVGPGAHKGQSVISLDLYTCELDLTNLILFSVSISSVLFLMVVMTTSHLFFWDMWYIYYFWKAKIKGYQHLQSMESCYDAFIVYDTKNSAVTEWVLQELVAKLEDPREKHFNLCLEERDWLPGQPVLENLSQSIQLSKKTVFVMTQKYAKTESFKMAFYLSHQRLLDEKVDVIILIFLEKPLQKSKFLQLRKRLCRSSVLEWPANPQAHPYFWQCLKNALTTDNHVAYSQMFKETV

[1] = biological target: TLR2:TLR1 dimer, TLR2:TLR6 dimer (Mus musculus, UniProt Q9QUN7); details: 1.7, 8.5 or 17 μM
TLR2:TLR1 dimer, TLR2:TLR6 dimer, sequence (Q9QUN7 25-784): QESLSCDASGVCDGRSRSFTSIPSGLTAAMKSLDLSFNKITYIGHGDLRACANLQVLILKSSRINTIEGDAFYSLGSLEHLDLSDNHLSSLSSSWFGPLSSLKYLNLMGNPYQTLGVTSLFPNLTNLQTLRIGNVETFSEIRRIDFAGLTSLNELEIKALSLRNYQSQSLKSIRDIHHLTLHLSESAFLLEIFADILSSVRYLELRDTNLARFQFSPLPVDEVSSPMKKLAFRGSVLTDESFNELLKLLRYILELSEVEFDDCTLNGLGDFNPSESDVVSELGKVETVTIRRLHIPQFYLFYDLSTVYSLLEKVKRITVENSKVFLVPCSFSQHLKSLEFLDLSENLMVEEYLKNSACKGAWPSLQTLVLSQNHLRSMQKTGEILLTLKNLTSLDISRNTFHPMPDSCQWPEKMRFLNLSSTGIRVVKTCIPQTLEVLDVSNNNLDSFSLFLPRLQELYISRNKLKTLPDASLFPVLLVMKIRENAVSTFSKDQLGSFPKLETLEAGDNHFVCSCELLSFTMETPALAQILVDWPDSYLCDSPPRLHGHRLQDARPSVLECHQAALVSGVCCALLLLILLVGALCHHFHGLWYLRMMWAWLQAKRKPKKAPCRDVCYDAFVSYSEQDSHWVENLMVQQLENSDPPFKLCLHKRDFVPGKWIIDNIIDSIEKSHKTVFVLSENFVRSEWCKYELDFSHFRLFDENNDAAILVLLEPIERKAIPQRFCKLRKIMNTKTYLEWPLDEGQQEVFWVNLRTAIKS

HMG-CoA reductase = HMG-CoA reductase (Homo sapiens, UniProt P04035); details: concentrations of up to 10 μM; data not shown
HMG-CoA reductase, sequence (P04035 whole entry, species assumed): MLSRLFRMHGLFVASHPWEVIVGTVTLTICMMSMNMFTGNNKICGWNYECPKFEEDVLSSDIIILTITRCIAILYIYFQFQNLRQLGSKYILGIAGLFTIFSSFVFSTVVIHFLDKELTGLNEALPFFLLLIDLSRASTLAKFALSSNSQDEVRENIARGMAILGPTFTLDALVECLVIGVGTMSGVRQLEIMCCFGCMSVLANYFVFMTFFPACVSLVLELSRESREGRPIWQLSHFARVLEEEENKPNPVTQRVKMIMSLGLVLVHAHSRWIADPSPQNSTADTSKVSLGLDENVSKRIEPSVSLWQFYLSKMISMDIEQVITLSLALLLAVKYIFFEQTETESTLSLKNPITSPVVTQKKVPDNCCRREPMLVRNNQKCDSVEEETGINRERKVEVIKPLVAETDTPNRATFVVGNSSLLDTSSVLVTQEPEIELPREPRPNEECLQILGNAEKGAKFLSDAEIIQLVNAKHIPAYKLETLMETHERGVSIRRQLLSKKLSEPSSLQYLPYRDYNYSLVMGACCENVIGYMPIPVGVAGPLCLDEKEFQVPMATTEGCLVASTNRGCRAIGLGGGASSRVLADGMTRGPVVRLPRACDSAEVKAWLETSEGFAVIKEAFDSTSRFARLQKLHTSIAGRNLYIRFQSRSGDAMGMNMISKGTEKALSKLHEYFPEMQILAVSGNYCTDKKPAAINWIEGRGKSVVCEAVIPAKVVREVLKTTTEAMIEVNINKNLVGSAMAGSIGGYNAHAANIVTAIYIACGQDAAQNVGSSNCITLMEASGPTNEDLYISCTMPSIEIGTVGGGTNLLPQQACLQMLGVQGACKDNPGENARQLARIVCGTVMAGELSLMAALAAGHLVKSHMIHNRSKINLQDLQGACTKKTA

COX-2, sequence (P35354 18-604): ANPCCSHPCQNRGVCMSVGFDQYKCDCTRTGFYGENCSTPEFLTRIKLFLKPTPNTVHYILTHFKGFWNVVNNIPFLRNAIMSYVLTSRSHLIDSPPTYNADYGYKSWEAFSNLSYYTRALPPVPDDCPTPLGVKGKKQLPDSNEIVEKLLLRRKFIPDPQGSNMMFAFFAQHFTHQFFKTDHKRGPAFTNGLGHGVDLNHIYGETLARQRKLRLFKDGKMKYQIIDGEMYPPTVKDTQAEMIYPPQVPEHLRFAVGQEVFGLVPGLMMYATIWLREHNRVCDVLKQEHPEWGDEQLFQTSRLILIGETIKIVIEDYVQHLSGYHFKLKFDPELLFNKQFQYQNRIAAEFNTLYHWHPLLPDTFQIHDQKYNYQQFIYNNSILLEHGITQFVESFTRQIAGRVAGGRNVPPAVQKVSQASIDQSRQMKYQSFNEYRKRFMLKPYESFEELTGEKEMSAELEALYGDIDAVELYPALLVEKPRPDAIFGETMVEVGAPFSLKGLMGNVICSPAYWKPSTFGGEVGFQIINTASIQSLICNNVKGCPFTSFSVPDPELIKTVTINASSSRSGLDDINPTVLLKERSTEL

Structure (SMILES): CCCCCCCCCCCCCCCCOC[C@H](COP(=O)([O-])OCC[N+](C)(C)C)OCCCCC(=O)O [VB-201, (R)-1-hexadecyl-2-(4′-carboxyl)butyl-sn-glycero-3-phosphocholine]
- inhibition of COX-2 (COX-2): No inhibition
- granulocyte phagocytosis (granulocytes): no VB-201 effect was seen
- monocyte phagocytosis capacity (monocytes): did not have any significant effect
- inhibition of TNFα receptor (TNFα receptor): No inhibition
- p38 phosphorylation following activation of TLR9 (TLR9): no apparent effect
- p38 phosphorylation following activation of TLR7 (TLR7): no apparent effect
- p38 phosphorylation following activation of dimers of TLR2 ([1]; mouse BMDCs, Pam3CSK4, PGN): inhibited p^38 phosphorylation in a dose-dependent manner
- activation of p38, ERK1/2 and the NFκB pathway following activation of TLR2:TLR1 dimer ([1]; mouse peritoneal macrophages, Pam3CSK4): inhibited activation of p38, ERK1/2 and the NFκB pathway in a dose-dependent manner
- inhibition of HMG-CoA reductase (HMG-CoA reductase): No inhibition
